Measured values published in patent publication US9090662B2, “Dithioamine reducing agents” (WISCONSIN ALUMNI RESEARCH FOUNDATION, priority 2012, dated 2015).
Read-outs that look alike come from different tables or passages of the source. Marks after values point to notes of the source that are not given here.

What was measured:
[1] = Reduction potential (E°′) from HPLC redox equilibrium with oxidized DTT; format: physicochemical; details: for Keq for the reaction with oxidized DTT: 50 mM potassium phosphate buffer pH 7, 24 h, room temperature
Experimental: [2g] Data were obtained by a procedure similar to that described previously. [2g, 15b] […] The flask was then flushed with N2(g) for 30 min.
A 50 mM stock solution of potassium phosphate buffer (pH 7) was degassed and purged with N2(g) for 30 min immediately prior to use. Buffer (15 mL) was added, and the reaction mixture was stirred under N2(g) for 24 h at room temperature. The reaction mixture was then quenched by the addition of 3 N HCl (1:100 dilution). The reaction mixture was passed through a 4.5-μm filter, and 100 μL of the reaction mixture was analyzed immediately by HPLC using a Waters system equipped with a Waters 996 photodiode array detector, Empower 2 software, and a Varian C18 reverse-phase column. The column was eluted at 1.0 mL/min with water (5.0 mL), followed by a linear gradient (0-40% v/v) of acetonitrile/water over 40 min. Compounds were detected by their absorbance at 205 nm. Reduced and oxidized DTBA are highly polar and elute from the column immediately (as confirmed by LC-MS). Two peaks, however, were clearly visible in the chromatogram FIG. 4). […] Calibration curves were generated and found to be linear over the used concentration range.
The procedure described in Example 5 was also performed with BMS. […] A previously reported reduction potential for BMS was E°′=−0.31 V. [2g]

[2] = value from the literature, cited from earlier work
[3] = value from the literature, cited from earlier work; remark: listed apart in the source
[4] = Separation using DOWEX 50WX4-400 ion-exchange resin (Ellman's assay of filtrate); format: physicochemical; details: 0.10 M sodium phosphate buffer, pH 8.0, 1 mM EDTA
Experimental: A reaction buffer (0.10 M sodium phosphate, pH 8.0, 1 mM EDTA) was prepared. Ellman's reagent solution was prepared by adding Ellman's reagent (4 mg) to 1 mL of the reaction buffer. Next, to 25 mL of reaction buffer (0.10 M sodium phosphate, pH 8.0, 1 mM EDTA) was added DTBA (2.2 mg, 1.27×10^−5 mol) and 1.7 g of DOWEX 50WX4-400 ion-exchange resin. The mixture was swirled for several minutes and filtered through a fritted syringe. Ellman's reagent solution (50 μL) was added to two separate vials containing 2.5 mL of reaction buffer. As a blank, 250 μL of reaction buffer was added to one of the vials, and the absorbance at 412 nm was set to zero. Filtrate (250 μL) was then added to the other vial and its absorbance was recorded. With A412=0.012 and using an extinction coefficient of ε=14,150 M^−1cm^−1, [24b, 24c] it was calculated that >99% of DTBA was retained by the resin and thus removed from solution. […] See Example 3 for a more detailed explanation of similar calculations using Ellman's assay.

[5] = Kinetic studies on the reduction of oxidized βME; format: physicochemical
Experimental: The observed second-order rate constant (kobs) for a thiol-disulfide interchange reaction was determined by adapting a procedure described previously. [2e] When the disulfide is oxidized βME, a 50 mM stock solution of potassium phosphate buffer was degassed and purged with N2(g) for 30 min immediately prior to use. […] Phosphate buffer (2.5 mL) was added to the round-bottom flask containing the dithiol. Oxidized βME stock solution (2.5 mL) was then added, and the reaction mixture was stirred at room temperature under N2(g) for 1 min. The reaction mixture was quenched by the addition of 0.10 mL of 3 N HCl. The reaction mixture was passed through a 4.5-μm filter, and 100 μL of the reaction mixture was analyzed immediately by HPLC using a Varian C18 reverse-phase column. The column was eluted at 1.0 mL/min with water (5.0 mL), followed by a linear gradient (0-40% v/v) of acetonitrile/water over 40 min. The extent of reduction was determined by integrating the newly formed peak corresponding to βME at 205 nm (retention time: 8 min). This process was repeated for reaction times of 2 and 4 min. Calibration curves were generated and found to be linear over the used concentration range. The amount of residual oxidized βME was calculated, and second-order rate constants were calculated from a linear fit of the data in FIG. 1A (that is, kobs=[(1/cfinal)−(1/cinitial)]/t). […] Rate constants were the mean±SE from three experiments.

[6] = Kinetic studies on the reduction of oxidized L-glutathione; format: physicochemical; details: for kobs, second-order rate constant, reduction of oxidized L-glutathione: pH 7.0, 50 mM potassium phosphate buffer, mean ± SE from three experiments
Experimental: An experiment similar to that in Example 7 was conducted with disulfide=oxidized L-glutathione. Reactions were quenched at various time points (2, 4, 6, and 8 min) and 100 μL was analyzed by HPLC (1.0 mL/min with water (5.0 mL) in 0.1% v/v TFA, followed by a linear gradient (0-40% v/v) of acetonitrile in 0.1% v/v TFA over 40 min). The extent of reduction was determined by integrating the newly formed L-glutathione reduced peak at 220 nm (retention time of 7 min). Second-order rate constants were calculated from a linear fit of the data in FIG. 1B (that is, kobs=[(1/cfinal)−(1/cinitial)]/t). Rate constants were the mean±SE from three experiments.

[7] = target: T1, papaya latex papain (Carica papaya, UniProt P00784); assay: Kinetic studies on the reactivation of papain (reduction of mixed disulfide at Cys25); format: biochemical; details: 0.10 M imidazole-HCl buffer, pH 7.0, 2 mM EDTA; for kobs, second-order rate constant, reactivation of papain: mean ± SE from three experiments
T1 construct: Cys25 in the active site of papaya latex papain; from tissue; host or cells: papaya latex
T1 sequence (P00784 134-345): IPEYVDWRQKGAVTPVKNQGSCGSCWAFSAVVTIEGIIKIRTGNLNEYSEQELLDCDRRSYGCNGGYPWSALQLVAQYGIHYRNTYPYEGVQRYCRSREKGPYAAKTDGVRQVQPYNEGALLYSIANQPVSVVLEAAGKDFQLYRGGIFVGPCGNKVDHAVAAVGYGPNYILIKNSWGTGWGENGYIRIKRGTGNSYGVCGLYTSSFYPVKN
Experimental: Cys25 in the active site of papaya latex papain was oxidized as a mixed disulfide by a procedure described previously.[25] Briefly, a stock solution of methyl methanethiosulfonate (3.5 mM) was prepared by dilution of 5 μL of methyl methanethiosulfonate with 15 mL of 0.10 M potassium phosphate buffer, pH 7.0, containing EDTA (2 mM). KCl (0.011 g, 0.15 mmol) was added to 1.5 mL of this stock solution. The solution was deoxygenated by bubbling N2(g) through it for 15 min. Next, papain (5 mg, 150 units) was added, and the resulting solution was incubated at room temperature under N2(g) for 12 h. Excess methyl methanethiosulfonate was removed by size-exclusion chromatography using a Sephadex G-25 column. The final concentration of papain was determined by A280 using ε280=5.60×10^4 M^−1cm^−1. A solution (0.26 mL) of the chromatographed protein was diluted with 4.94 mL of deoxygenated aqueous buffer (0.10 M imidazole-HCl buffer, pH 7.0, containing 2 mM EDTA). Enzyme solution (1.25 mL) was then added to four separate vials. […] The rate of change in absorbance at 410 nm was recorded at 25° C. A unit of protein is defined by the amount of enzyme required to produce 1 μmol/min of 4-nitroaniline. Using an extinction coefficient for 4-nitroaniline of ε=8,800 M^−1cm^−1 at 410 nm, [27] the number of units of active papain in solution at each time point was calculated. […] Enzymatic activity (%) at particular times was calculated by dividing the number of active units of enzyme by the possible number of units in the solution, and was plotted as in FIG. 2A. To determine the value of the second-order rate constant kobs for the reducing agents, the second-order rate equation (eq 4) was transformed into eq 5, which was fitted to the data with the program PRISM 5.0. […] Values of kobs were the mean±SE from three experiments.

[8] = Determination of thiol pKa values (pH-titration monitored by absorbance at 238 nm); format: physicochemical; details: for pKa: potassium phosphate buffer, mean ± SE from this work
Experimental: The thiol pKa values of DTBA were determined by measuring its absorbance at 238 nm in solutions of different pH. The deprotonated thiolate absorbs much more strongly at 238 nm than does its protonated counterpart. [15a] This attribute was exploited for determining thiol pKa values as described previously. [15b] Buffered stock solutions of K3PO4, K2HPO4, and KH2PO4 (100 mM) were degassed and flushed with N2(g) for 1 h immediately prior to use. A stock solution of DTBA (1.5 mM) in KH2PO4 was then prepared. Various combinations of the buffered stock solutions were combined in duplicate to give two identical sets of 1-mL solutions of pH 5.5-11. KH2PO4 stock solution (70 μL) was added to each replicate pair of solutions and used to set the A238 to zero. Dithiol solution (70 μL) was then added to its complimentary 1-mL vial, and its absorbance at 238 nm was recorded. The pH of the solution was then immediately measured using a Beckman pH meter, which had been calibrated prior to use with pH 7 and pH 10 standard solutions from Fisher Scientific. This process was repeated multiple times to obtain a plot of A238 vs pH (FIG. 3).
pKa values were determined by fitting the data in FIG. 3 to eq 1, which is derived from Beer's law and the definition of the acid dissociation constant. [15b] In eq 1, CT is total thiol concentration, εSH^SH is the extinction coefficient of the doubly protonated form, εSH^S− is the extinction coefficient of the singly protonated form, and εS−^S−is the extinction coefficient of the unprotonated form. Both pKa values and extinction coefficients were determined from the curve fit.

[9] = target: T2, rabbit muscle creatine kinase (Oryctolagus cuniculus, UniProt P00563); assay: Kinetic studies on the reactivation of creatine kinase (reduction of mixed disulfide at Cys283); format: biochemical; details: creatine kinase-Cys283-S—S-glutathione; mean ± SE from three experiments
T2 construct: Cys283 in the active site of rabbit muscle creatine kinase; from tissue; host or cells: rabbit muscle
T2 sequence (P00563 whole entry): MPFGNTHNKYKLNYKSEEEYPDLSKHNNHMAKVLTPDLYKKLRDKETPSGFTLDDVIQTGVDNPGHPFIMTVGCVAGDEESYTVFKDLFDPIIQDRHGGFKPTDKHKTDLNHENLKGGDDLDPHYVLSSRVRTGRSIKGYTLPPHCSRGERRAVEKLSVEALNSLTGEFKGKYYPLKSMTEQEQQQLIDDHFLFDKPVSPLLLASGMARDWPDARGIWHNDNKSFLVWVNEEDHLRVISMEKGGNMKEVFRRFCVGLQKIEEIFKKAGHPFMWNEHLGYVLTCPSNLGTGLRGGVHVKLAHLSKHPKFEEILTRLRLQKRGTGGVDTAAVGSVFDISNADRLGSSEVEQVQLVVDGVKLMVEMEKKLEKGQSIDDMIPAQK
Experimental: Cys283 in the active site of rabbit muscle creatine kinase was oxidized as a mixed disulfide by a procedure described previously, [28] but with a slight modification in the measurement of active enzyme. A unit of enzyme was defined as the amount required to produce 1 μmol/min of NADPH. Using an extinction coefficient for NADPH of ε=6.22 mM^−cm^−1 at 340 nm, the units of active creatine kinase in solution at a particular time were calculated. […] Enzymatic activity (%) at particular times was calculated by dividing the number of active units of enzyme by the possible number of units in the solution, and was plotted as in FIG. 2B. Values of the second-order rate constant k were determined by using eq 4 as described in Example 9, and were the mean±SE from three experiments.

[10] = from ref. 13; cited from earlier work
[11] = Solubility in water; format: physicochemical; details: HCl salt
[12] = pH 5.5, 50 mM potassium phosphate buffer
[13] = pH 7.0, 50 mM potassium phosphate buffer, mean ± SE from three experiments

Compound | Keq for the reaction with oxidized DTT [1] | Disulfide Reduction Potential (E°′) [3] | Fraction removed from solution (retained) by Dowex 50 cation-exchange resin [4] | kobs, second-order rate constant, reduction of oxidized βME [5, 12] | kobs, second-order rate constant, reduction of oxidized βME [5, 13] | kobs, second-order rate constant, reduction of oxidized L-glutathione [6] | kobs, second-order rate constant, reactivation of papain [7] | kobs, second-order rate constant, reactivation of creatine kinase [9] | Thiol pKa ([2]; lower (first) thiol pKa) | other results
O=S(=O)(CCS)CCS [BMS, Bis(2-mercaptoethyl)sulfone] | 0.0517±0.0194 | −0.31 V | – | – | – | – | – | – | – | Disulfide Reduction Potential (E°′) ([1]; 50 mM potassium phosphate buffer pH 7, equilibrium with oxidized DTT, assuming E°′=−0.327 V for DTT, mean ± SE from seven experiments): −0.291±0.002 V; Thiol pKa ([2]; second (higher) thiol pKa): 9.0±0.2
O[C@H](CS)[C@H](O)CS (racemic) [DTT, (2S,3S)-1,4-dimercaptobutane-2,3-diol] | – | – | < 1% | 0.0021 ± 0.0002 M⁻¹ s⁻¹ | 0.084 ± 0.004 M⁻¹ s⁻¹ | 0.16 ± 0.02 M⁻¹ s⁻¹ | 91.3 ± 9.4 M⁻¹ s⁻¹ | 17.5 ± 1.6 M⁻¹ s⁻¹ | – | Disulfide Reduction Potential (E°′) ([3]; listed as DTT (racemate)): −0.327 V^e; Residues in the reactive thiolate form ([8]; at pH 7): less than 1%; Thiol groups protonated (unreactive) ([8]; at pH 7, from lower thiol pKa […]): greater than 99%
NCCS [Cysteamine] | – | −0.203 V^b | – | – | – | – | – | – | 8.37^c | Amino pKa [10]: 10.44
OCCS [βME, β-mercaptoethanol] | – | −0.260 V^b | – | – | – | – | – | – | 9.61^a | –
N[C@H](CS)CCS [DTBA, (2S)-2-amino-1,4-dimercaptobutane] | 0.469±0.131 | – | > 99% | 0.0093 ± 0.0003 M⁻¹ s⁻¹ | 0.29 ± 0.02 M⁻¹ s⁻¹ | 0.83 ± 0.04 M⁻¹ s⁻¹ | 1342 ± 148 M⁻¹ s⁻¹ | 15.1 ± 1.0 M⁻¹ s⁻¹ | – | kobs^DTBA/kobs^DTT, reduction of oxidized βME (fold faster than DTT) ([5]; pH 5.5): 4.4; kobs^DTBA/kobs^DTT, reduction of oxidized βME (fold faster than DTT) ([5]; pH 7.0): 3.5; kobs^DTBA/kobs^DTT, reduction of oxidized L-glutathione (fold faster than DTT) ([6]; pH 7.0): 5.2; kobs^DTBA/kobs^DTT, reduction of papain mixed disulfide (fold faster than DTT) [7]: 14; pKa ([8]; lower (first) thiol pKa, 0.10 M potassium phosphate buffer): 8.2 ± 0.2; pKa ([8]; second (higher) thiol pKa, in parentheses in Table 1): 9.3 ± 0.1; Solubility in water [11]: high solubility in water
